{
  "source": "patent US20240366644A1",
  "about": "“ANTI-INFLAMMATORY APPLICATION OF GINSENOSIDE RD” (priority 2022, published 2024)",
  "key": {"[1]": {"tested_on": "mice with acute lung injury", "test": "Inflammatory factors (ELISA) in lung tissue and alveolar lavage fluid of mice with LPS acute lung injury", "format": "in vivo, Balb/c mice", "settings": "5 mg/kg intraperitoneal 1 h before LPS; 24 h after modeling", "procedure": "Balb/c male mice, weighing 20-22 g, were randomly divided into five groups according to body weights, with eight mice in each group: a blank control group (propylene glycol-0.5% carboxymethylcellulose sodium), a model group (LPS, 15 mg/kg), a ginsenoside Rd low-dose group (10 mg/kg), a ginsenoside Rd high-dose group (20 mg/kg), and a Dexamethasone group (5 mg/kg). Mice in each group were intraperitoneally injected; after 1 h of administration, except for the blank control group, the mice in each group were intratracheally instilled with 20 μg of LPS for modeling; and the blank control group was intratracheally instilled with an equal volume of PBS.\nAfter 1 h of administration, a mouse ALI model was established; each mouse was intraperitoneally injected with sodium pentobarbital at 30 mg/kg, anesthetized and fixed on an operating table dorsally; skin preparation was carried out on the neck; the skin was incised to expose the trachea; 20 μg of LPS was instilled into the trachea using a microglass syringe; and then the mouse was gently rotated head up on the operating table, such that the instilled liquid was evenly distributed in the mouse lungs, and the skin incision was sutured.\nAfter 24 h of modeling, anesthetized mice were intraperitoneally injected with sodium pentobarbital at 30 mg/kg; lung tissues of the mice were taken and rinsed repeatedly in pre-cooled normal saline; the lung tissues were blood-removed, wiped with filter paper, weighed, and added with normal saline according to a ratio of 1:9 (W:V=1 g:9 ml); a tissue homogenate was prepared with a homogenization machine under an ice water bath; and a supernatant of mouse lung tissue homogenate was taken.\nThe mouse was anesthetized, and the trachea was separated; the whole lung was lavaged with 0.5 ml of pre-cooled normal saline, stayed for 1 min, and slowly pumped back with a syringe, and this process was repeated three times; and BLAF was collected, and centrifuged for 15 min at 4° C. and 1600 rpm/min.\nIn strict accordance with the operating instructions of an enzyme-linked immunosorbent assay kit (ELISA), the contents of TNF-α, IL-1β, IL-6 and IL-18 in the supernatant of mouse lung tissue homogenate and the BLAF supernatant were detected."}, "[2]": {"tested_on": "COVID-19 Delta virus-infected mice", "test": "IL-1β and MCP-1 expression (RT-qPCR) in lung homogenates of COVID-19 Delta virus-infected mice", "format": "in vivo, hACE2 transgenic C57BL/6 mice", "settings": "mRNA, blank group 1.00; 5 mg/kg gavage; Day 5 of infection"}, "[3]": {"tested_on": "mice infected with COVID-19 Delta virus", "test": "Lung histopathology of mice infected with COVID-19 Delta virus", "format": "in vivo, hACE2 transgenic C57BL/6 mice", "settings": "number of mice with this degree (four per group); 5 mg/kg gavage once a day, five days"}, "[4]": {"tested_on": "xylene-induced swelling of mouse ears", "test": "Xylene-induced swelling of mouse ears", "format": "in vivo, Kunming mice", "procedure": "[…] KM mice, weighing 18-22 g, were randomly grouped, with ten mice in each group. The groups include a model group, a positive control group (Indomethacin, 10 mg/kg), a ginsenoside Rd low-dose group (5 mg/kg), and a ginsenoside Rd high-dose group (10 mg/kg). After 30 min of gavage administration of mice (the model group was administrated with the equal volume of 0.5% sodium carboxymethylcellulose by gavage), 0.03 ml of xylene was evenly applied to both sides of the right ear of each mouse in each group to cause inflammations on both sides, and the left ear of the mouse was not applied as a control. After 4 h, the mouse was killed by dislocation of cervical vertebra, the two ears of the mouse were cut off along the auricle, round ear slices of the same size (a diameter of 6 mm) were taken at the same position of the left and right ears and weighed respectively, a mass difference of the two ear slices was used as an ear swelling degree, and a swelling inhibition rate was calculated."}, "[5]": {"tested_on": "Chronic Obstructive Pulmonary Disease in Rats", "test": "Serum TNF-α and IL-8 in rats with chronic obstructive pulmonary disease (LPS + smoking)", "format": "in vivo, SD rats", "settings": "2.5 mg/kg gavage", "procedure": "After adaptive feeding (20-25° C., a humidity of 50-60%) for 1 week, the rats were randomly divided into a blank group, a model group, a positive control group, a ginsenoside Rd high-dose group, and a ginsenoside Rd low-dose group, with ten rats in each group.\nModel group: on the Day 1 and Day 14, each rat was intraperitoneally injected with 10% chloral hydrate (300 mg/kg) for anesthesia; the head was fixed in a low position; the glottis was exposed; lipopolysaccharide was quickly injected into the trachea; and the rat was kept upright, and swung left and right for 10-20 s, such that the lipopolysaccharide was evenly distributed in the two lungs. On the Days 2-13, and 15-28, the lungs were smoked in a closed organic glass box for 30 min every day, with 15 cigarettes per day.\nPositive control group: the animal was anesthetized, and intratracheally injected with lipopolysaccharide, wherein smoking conditions and time were the same as those of the model group; and after tracheal injection of lipopolysaccharide for two weeks, the animal was administrated with Simvastatin by gavage (2.5 mg/kg), and killed after six weeks, and serum was collected.\nIn accordance with the instructions, the levels of TNF-α and IL-8 in the serum were detected by enzyme-linked immunosorbent assay. The data was expressed as x±s, p<0.05, which meant that it was statistically significant."}, "[6]": {"tested_on": "Chronic Obstructive Pulmonary Disease in Rats", "test": "Lung pathomorphology of rats with chronic obstructive pulmonary disease", "format": "in vivo, SD rats", "settings": "po, 2.5 mg/kg"}, "[7]": {"settings": "10 mg/kg gavage 30 min before xylene, 4 h after xylene"}},
  "data": [
    {"smiles": "C[C@@H]1C[C@H]2[C@@H]3CCC4=CC(=O)C=C[C@]4(C)[C@@]3(F)[C@@H](O)C[C@]2(C)[C@@]1(O)C(=O)CO", "note": "[Dexamethasone, reference compound]", "values": [
      {"measurement": "IL-1β in alveolar lavage fluid", "setting": "[1]", "result": "58.56 ± 16.24", "unit": "ng/L"},
      {"measurement": "IL-1β in lung tissue", "setting": "[1]", "result": "48.76 ± 12.76", "unit": "ng/L"},
      {"measurement": "IL-6 in alveolar lavage fluid", "setting": "[1]", "result": "36.89 ± 6.16", "unit": "ng/L"},
      {"measurement": "IL-6 in lung tissue", "setting": "[1]", "result": "49.73 ± 16.08", "unit": "ng/L"},
      {"measurement": "IL-18 in alveolar lavage fluid", "setting": "[1]", "result": "56.38 ± 9.40", "unit": "ng/L"},
      {"measurement": "IL-18 in lung tissue", "setting": "[1]", "result": "49.06 ± 15.41", "unit": "ng/L"},
      {"measurement": "TNF-α in alveolar lavage fluid", "setting": "[1]", "result": "222.58 ± 60.91", "unit": "ng/L"},
      {"measurement": "TNF-α in lung tissue", "setting": "[1]", "result": "58.64 ± 10.65", "unit": "ng/L"},
      {"measurement": "IL-1β expression level in lung homogenate", "setting": "[2]", "result": "9.26 ± 10.27"},
      {"measurement": "MCP-1 expression level in lung homogenate", "setting": "[2]", "result": "6.27 ± 8.20"},
      {"measurement": "Interstitial pneumonia Mild", "setting": "[3]", "result": 3},
      {"measurement": "Interstitial pneumonia Moderate", "setting": "[3]", "result": 1},
      {"measurement": "Interstitial pneumonia Severe", "setting": "[3]", "result": 0},
      {"measurement": "Pulmonary hemorrhage Mild", "setting": "[3]", "result": 3},
      {"measurement": "Pulmonary hemorrhage Moderate", "setting": "[3]", "result": 1},
      {"measurement": "Pulmonary hemorrhage Severe", "setting": "[3]", "result": 0}
    ]},
    {"smiles": "COc1ccc2c(c1)c(CC(=O)O)c(C)n2C(=O)c1ccc(Cl)cc1", "note": "[Indomethacin, reference compound]", "values": [
      {"measurement": "Ear mass difference", "setting": "[4]; [7]", "result": "10.87 ± 0.53", "unit": "mg"},
      {"measurement": "Swelling degree", "setting": "[4]; [7]", "result": "6.48 ± 1.89 (mg) (%)"},
      {"measurement": "inhibition at 10 mg/kg", "setting": "[4]; Mus musculus, po, ear swelling, 10 mg/kg gavage, read-out: Inhibition rate", "result": 40.3, "unit": "%"}
    ]},
    {"smiles": "CCC(C)(C)C(=O)O[C@H]1C[C@@H](C)C=C2C=C[C@H](C)[C@H](CC[C@@H]3C[C@@H](O)CC(=O)O3)[C@H]21", "note": "[Simvastatin, reference compound]", "values": [
      {"measurement": "IL-8 in serum", "setting": "[5]", "result": "22.65 ± 11.56"},
      {"measurement": "TNF-α in serum", "setting": "[5]", "result": "11.71 ± 13.27"},
      {"measurement": "Epithelial cell necrosis Mild", "setting": "[6]", "result": 7},
      {"measurement": "Epithelial cell necrosis Moderate", "setting": "[6]", "result": 3},
      {"measurement": "Epithelial cell necrosis Severe", "setting": "[6]", "result": 0},
      {"measurement": "Interstitial inflammatory cell infiltration Mild", "setting": "[6]", "result": 6},
      {"measurement": "Interstitial inflammatory cell infiltration Moderate", "setting": "[6]", "result": 4},
      {"measurement": "Interstitial inflammatory cell infiltration Severe", "setting": "[6]", "result": 0}
    ]}
  ]
}
